The results in this text go back to article PMC5730604.

Positions of bridges follow the written chain, without caps; N, C: chain ends. Non-standard residues stand in square brackets, D forms with d. Residues, ends and D or L forms follow the SMILES beside them. Chains are numbered I, II in the order given. *: point of attachment. PEG28 = NCCOCCOCCOCCOCCOCCOCCOCCOCCOCCOCCOCCOCCOCCOCCOCCOCCOCCOCCOCCOCCOCCOCCOCCOCCOCCOCCOCCOCCC(=O)O; Tyr(3-NO2) = N[C@@H](Cc1ccc(O)c([N+](=O)[O-])c1)C(=O)O; Hyp = O=C(O)[C@@H]1C[C@@H](O)CN1; For = O=C*

In data set [1] the target is immobilized integrin α3β1 (VLA-3) (Homo sapiens, UniProt P26006). The experiment in a line: biochemical. The method, then:
Single cycle kinetic experiments were conducted on a Biacore 3000 system using a CM5 sensor chip at 25 and 37 °C with a flow rate of 10 µl/min. After coupling of the VLA-3 receptor (R&D Systems) via standard EDC/NHS immobilization chemistry (7 min activation with EDC/NHS followed by a 7 min flush with VLA-3) in 10 mM NaOAc buffer at pH 6 containing 1 mM MnCl2, a […] solution of ethanolamine was injected for 7 min to block all amine reactive sites. Subsequently the analyte was flushed over the chip surface at a flow rate of 10 µl/min in HEPES buffered saline supplemented with 1 mM MnCl2.

The target in a further data set is HT-29 cells (Homo sapiens, UniProt P26006). In words: Competition with 200 nM B9-Biotin (flow cytometry). The data set is classed as binding.
Chain of HT-29 cells (P26006 33-1051): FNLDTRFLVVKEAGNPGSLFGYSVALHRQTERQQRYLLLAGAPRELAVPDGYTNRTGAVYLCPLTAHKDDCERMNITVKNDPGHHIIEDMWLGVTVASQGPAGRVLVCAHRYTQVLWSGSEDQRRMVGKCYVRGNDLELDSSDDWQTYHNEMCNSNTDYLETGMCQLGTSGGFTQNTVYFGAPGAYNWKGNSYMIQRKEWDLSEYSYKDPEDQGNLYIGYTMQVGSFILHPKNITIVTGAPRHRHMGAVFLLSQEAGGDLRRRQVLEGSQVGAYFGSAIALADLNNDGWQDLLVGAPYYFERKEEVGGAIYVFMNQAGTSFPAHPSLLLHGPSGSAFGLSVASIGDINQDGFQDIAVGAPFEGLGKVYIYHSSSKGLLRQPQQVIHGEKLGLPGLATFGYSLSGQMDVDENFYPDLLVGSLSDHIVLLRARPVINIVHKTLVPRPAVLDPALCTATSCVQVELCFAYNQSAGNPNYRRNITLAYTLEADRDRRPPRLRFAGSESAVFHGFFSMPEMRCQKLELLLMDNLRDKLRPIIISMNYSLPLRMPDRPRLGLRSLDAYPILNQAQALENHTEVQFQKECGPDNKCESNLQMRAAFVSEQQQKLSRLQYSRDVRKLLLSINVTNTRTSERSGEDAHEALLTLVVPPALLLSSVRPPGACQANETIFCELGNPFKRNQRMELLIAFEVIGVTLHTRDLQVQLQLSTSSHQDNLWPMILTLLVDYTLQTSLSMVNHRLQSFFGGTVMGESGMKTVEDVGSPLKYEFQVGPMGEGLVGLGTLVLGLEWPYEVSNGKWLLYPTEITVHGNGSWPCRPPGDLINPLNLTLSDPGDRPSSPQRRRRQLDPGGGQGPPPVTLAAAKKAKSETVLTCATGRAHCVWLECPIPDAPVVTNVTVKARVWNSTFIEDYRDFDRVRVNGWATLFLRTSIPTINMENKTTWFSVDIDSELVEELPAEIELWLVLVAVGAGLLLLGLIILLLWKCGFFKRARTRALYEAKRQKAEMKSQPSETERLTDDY
Chain of HT-29 cells (P05556 21-798 partner): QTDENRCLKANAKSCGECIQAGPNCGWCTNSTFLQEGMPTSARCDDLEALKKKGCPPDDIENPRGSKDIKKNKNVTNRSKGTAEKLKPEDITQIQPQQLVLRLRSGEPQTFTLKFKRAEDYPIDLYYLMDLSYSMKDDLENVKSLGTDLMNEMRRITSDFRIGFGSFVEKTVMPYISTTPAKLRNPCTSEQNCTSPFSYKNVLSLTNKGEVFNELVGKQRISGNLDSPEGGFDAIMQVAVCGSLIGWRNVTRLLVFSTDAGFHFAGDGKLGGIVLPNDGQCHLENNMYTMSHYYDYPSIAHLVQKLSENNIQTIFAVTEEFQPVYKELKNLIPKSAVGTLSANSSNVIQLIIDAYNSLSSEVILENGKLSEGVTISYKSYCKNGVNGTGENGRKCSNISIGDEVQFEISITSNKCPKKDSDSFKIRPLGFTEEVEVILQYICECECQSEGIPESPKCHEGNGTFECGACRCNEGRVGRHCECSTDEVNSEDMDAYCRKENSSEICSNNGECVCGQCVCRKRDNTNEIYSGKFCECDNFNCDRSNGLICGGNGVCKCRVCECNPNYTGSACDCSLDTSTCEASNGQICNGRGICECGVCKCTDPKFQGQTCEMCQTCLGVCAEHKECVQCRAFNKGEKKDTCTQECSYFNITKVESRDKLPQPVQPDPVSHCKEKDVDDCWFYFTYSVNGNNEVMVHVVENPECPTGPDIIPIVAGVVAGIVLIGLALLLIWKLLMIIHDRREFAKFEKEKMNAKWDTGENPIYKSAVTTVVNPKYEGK
The test system of the next data set is guinea pig skin. The experiment in a line: Local skin inflammation model, immune cell infiltration. Conditions: s.c. 100 nmol. The data set is classed as in vivo. The method, then:
(§1) Animals: Eighth Edition. W ashington, DC: The National Academies Press, 2011) were […]
(§2) Committee (LANUV AZ. 87- 51.04.2010.A278). All experiments were performed in the Institute […]
(§3) GmbH (Sulzf eld, Germany) were used. Mice were housed in individual ventilated cages under […]
(§4) humidity and a 12h dark/light cycle.
(§5) Soest, Germany) was given ad libitum. Guinea pigs were housed in conventional open cages in the same way as describe for mice. Animals were allowed to acclimatize to their […]
(§6) additional immunohistochemical stainings with antibodies against granulocytes/monocytes

The subject of the next data set is mouse skin. Described as above. Type of data set: in vivo. The following applies: immune-deficient Balb/c nu/nu mice, s.c., 200 nmol to 500 nmol, 24 h. The method, then: as §1, §2, §3, §4, §5, §6
The test system of a further data set is GPC-16 tumor cells. In words: GPC-16 tumor model in guinea pigs. Type of data set: in vivo, Guinea pig. The method, then: by incubation with a 1:50 dilution of the secondary antibody (biotinylated goat -ant i-r at Ig G, BD Pharmingen, #554014 ). After incubation with horseradish peroxidase (HRP) coupled streptavidin color development was performed using the DAB substrate kit. All immunohistochemical stained tissue sections were counterstained using haemalaun or […]
Assessment of anti-tumor efficacy in the GPC -16 tumor model in guinea pig GPC-16 cells (guinea pig colorectal adenocarcinoma) were acquired from LGC and were cultured in Eagle’s minimum essential medium with 10% FCS and 100 U/ml Penicillin and 100 µg/ml Streptomycin. For each experiment 10 f emale guinea pigs (8- 10 weeks old) per group were immunosuppressed with an intraperitoneal injection of 200 mg/kg cyclophosphamide (CPA) one day bef ore the tumor inoculation and repeated every 7- 10 days for 4 week s. Efficacy of the CPA treatment was verif ied by routine blood analysis bef ore f irst CPA treatment and on a week ly basis thereafter. For the evaluation of the anti-tumor efficacy of the Y9 the 10 animals were divided into two groups of 5 animals. […] The presence of tumors in the sk in sections was evaluated by a board certif ied veterinarian pathologist using a scoring system. […]
T o study whether a repeated subcutaneous dosing of Y9 has any local or systemic toxic effects on animals, the following dose escalation study was performed. […] B ody weig ht and general health observations were evaluated on a daily basis. […] Organs (sk in, brain, heart, k idney, liver, lung, ovaries/testis, spleen, local and distal lymph nodes, mesentery, small intestine, stomach, pancreas) were isolated af ter euthanasia with an isof lurane overdose for histopathology and body weight-normalized organ weights (brain, kidney, heart, liver, spleen) were calculated.
W eights of the carcass, brain, heart, kidney, liver and spleen were determined and body weight-normalized organ weight in % was calculated as follows: […]

For data set [2] the following is noted: fresh mouse serum, 60 µM, extraction and RP-HPLC (C4) quantification at 214 and 375 nm.
Procedure: (§7) vor t exing the sample was incubated f or 48 h. At specif ic time points, the solution was again
(§8) vortexed, a sample (95 µl) was withdra wn and subjected to ultraf iltration (Vivaspin 500, 10 k Da
(§9) cutoff; 15 min, 16,000 g). The f iltrate was put on ice while the f ilter remainder was mixed with
(§10) an equal volume of ethanol (95%), vortexed and centrifuged (5 min, 16.000 g). W ith the
(§11) resulting supernatant, this procedure was repeated. The f inal supernatant was mixed with an
(§12) equal volume of f iltrate, shock frozen in liq uid nitr og en and stored at - 80 °C until analysis. RP -
(§13) HPLC analysis was performed using an analytical C4- RP column with a gradient of 5-65%
(§14) absorption at 214 and 375 nm (specif ic absorption maximum of the nitro-tyrosine building block
The absorption peak observed at the
For data set [3] the following is noted: mice, local s.c. injection of 200 or 500 nmol, dot-blot, detection limit ~1 nM.
Procedure: according to standard procedures. From 20 ml antiserum, 1.5 mg purified antibody were
isolated and stored in aliquots at -20 °C in PBS + 0.01% thimerosal, 0.1% BSA diluted 1:1 with
glycerin (f inal concentration 227 µg/ml).
on a nitrocellulose membrane.
concentrations between 0.5 nM and 20 nM and s amples were also spotted in triplicates. After
drying, the membrane was soaked in TBST (150 mM NaCl, 50 mM Tris-HCl, pH 7.4, 0.05%
tween), blocked for 1 h at RT with 5% nonfat dry milk in TBST. The membrane was washed 3
1:2000 in TBST, washed 3 times, incubated 1 h at RT with anti-rabbit-HRP (GE Healthcare)
diluted 1:5,000 in 5% nonf at dry milk in TBST. The membrane was f inally washed 3 times in
TBST and then incubated with ECL prime substrate (GE Healthcare). Chemiluminescent
signals were recorded in an LAS-4000 mini Image reader (Fuji). Spot intensities were
quantitated using Image J software. The calibration samples were used to prepare a linear
For the statistical analysis, mean (M) and standard deviation (SD) were calculated. T he
statistical analysis was p erf ormed with the GraphPad Prism Software, Version 5.0 (Graph Pad,
values of < 0.05 were considered signif icant.
A short description of the next data set: in vitro. The following applies: mouse, fresh mouse serum.

Procedure for in vitro: as §7, §8, §9, §10, §11, §12, §13, §14
The absorption peak observed at the

As for `CC[C@H](C)[C@H](NC(=O)[C@H](CCSC)NC=O)C(=O)N[C@@H](Cc1ccccc1)C(=O)N[C@@H](CC(C)C)C(=O)NCC(=O)NCC(=O)N[C@@H](CCCCNC(=O)CCOCCOCCOCCOCCOCCOCCOCCOCCOCCOCCOCCOCCOCCOCCOCCOCCOCCOCCOCCOCCOCCOCCOCCOCCOCCOCCOCCOCCNC(=O)[C@H]1CSSC[C@@H](N)C(=O)N[C@H](CC(=O)O)C(=O)NCC(=O)N[C@@H](Cc2ccc(O)c([N+](=O)[O-])c2)C(=O)NCC(=O)N2C[C@H](O)C[C@H]2C(=O)N[C@@H](CC(N)=O)C(=O)N1)C(=O)N[C@@H](CCCCNC(=O)CCOCCOCCOCCOCCOCCOCCOCCOCCOCCOCCOCCOCCOCCOCCOCCOCCOCCOCCOCCOCCOCCOCCOCCOCCOCCOCCOCCOCCNC(=O)[C@H]1CSSC[C@@H](N)C(=O)N[C@H](CC(=O)O)C(=O)NCC(=O)N[C@@H](Cc2ccc(O)c([N+](=O)[O-])c2)C(=O)NCC(=O)N2C[C@H](O)C[C@H]2C(=O)N[C@@H](CC(N)=O)C(=O)N1)C(=O)O` [Y9] (I: H-[dC][dD]G[Tyr(3-NO2)]G[Hyp]N[dC][PEG28] / II: H-[dC][dD]G[Tyr(3-NO2)]G[Hyp]N[dC][PEG28] / III: For-MIFLGGKK-OH; disulfide I:1-I:8, II:1-II:8; amide I:C-III:7, II:C-III:8), the dissociation constant (Kd) (as a rule, a measure of binding affinity in units of concentration) in data set [1] was 60 nM. The “concentration to displace B9-Biotin relative to the monovalent binder” value at HT-29 cells is on record as “four-fold lower”. For the same compound, the immune infiltrate entry in the data set on guinea pig skin (guinea pigs immune suppressed by four weekly injections of cyclophosphamide) is on record as “less intense”. Further, the “immune cell infiltration into the injection site” value in the data set with guinea pig skin (guinea pigs, 24 h) is recorded as “most pronounced”. Moreover, the immune infiltrates result in the data set on mouse skin is “dose-dependent increases in immune infiltrates”. For the same compound, the “animals with tumors present after 35 days” value in the data set with GPC-16 tumor cells (single dose 200 nmol mixed with 1.6–2 × 10^7 GPC-16 cells and Matrigel, s.c., CPA-treated Dunkin Hartley guinea pigs, control 8 out of 9) was 3 out of 10. For the same compound, the “reduction of establishment of GPC-16 based tumor” value in the data set on GPC-16 tumor cells (single dose treatment during injection of tumor cells, guinea pigs) is reported as 67%. Moreover, the “undesired effects in guinea pigs” value in the data set with GPC-16 tumor cells (single s.c. dose 200 nmol) is reported as “reddening at the injection site”. Also, the “time Y9 remains largely intact” value in data set [2] was > 24 h. In addition, in data set [3], the “detection of binder peptide in serum after 24 h” value is on record as “still detected”. In the data set “in vitro”, the metabolised at 48 h, 60 µM was 20%.
